# Test results as given in PMC7277225, “Structures of FOX-4 Cephamycinase in Complex with Transition-State Analog Inhibitors” (Biomolecules, 2020).
# How the values were obtained:
# [1] = biological target: T1, FOX-4 cephamycinase (class C β-lactamase) (Escherichia coli, UniProt Q9L387); assay: steady-state kinetics, nitrocefin hydrolysis, […] min pre-incubation; type: biochemical; conditions: read-out: FOX-4 ^1 IC50
# T1 construct: native FOX-4, purified from periplasmic fractions of E. coli
# [2] = biological target: T1, FOX-4 cephamycinase (class C β-lactamase); assay: X-ray crystal structure (soak, […] Å); IC50 with purified enzyme by nitrocefin hydrolysis; type: biochemical
# [3] = biological target: T1, FOX-4 cephamycinase (class C β-lactamase); assay: biochemical; conditions: read-out: FOX-4 ^1 IC50
IC50 [1] [nM],SMILES,also measured
260 ± 20,CO/N=C(\C(=O)NCB(O)O)c1csc(N)n1 [CTX-like],–
420 ± 20,O=C(Cc1cccs1)N[C@@H](Cc1cccc(C(=O)O)c1)B(O)O [EC04],–
–,CC(C)(O/N=C(\C(=O)NCB(O)O)c1csc(N)n1)C(=O)O [LP06],IC50 [2]: 110 ± 20 nM
–,O=C(Cc1cccs1)N[C@H](B(O)O)c1cccc(C(=O)O)c1 [SM23],IC50 [3]: 32 ± 3 nM
